According to patent US5395947A, “Platinum(II) complex and processes for preparing the same” (Sunkyong Industries, Ltd., priority 1991, dated 1995):

Columns and labels:
[1] = system: murine leukemia L1210 cells; experiment: Growth inhibition test on cultured murine leukemia L1210 cells; format: cell-based; conditions: 48 hours, 37° C., Trypan blue viability
Method: 1. Growth inhibition test on cultured murine leukemia L1210 cells
Murine leukemia L1210 cells(1×10^5) were treated with various concentrations of the compounds prepared in the above examples in RPMI 1640 medium supplemented with 10% fetal calf serum, and cultured in a 5% CO2 humidified incubator at 37° C. for 48 hours. Their viability, estimated by staining with 0.17% Trypan blue, was compared with that of control cells cultured in the identical medium without the compounds.

murine leukemia L1210 = experiment: Antitumor activity test on murine leukemia L1210 in vivo; set-up: species or system male BDF1 mice; conditions: days 1, 5, 9
Method: 2. Antitumor activity test on murine leukemia L1210 in vivo
Murine leukemia L1210 cells were maintained in the peritoneal cavities of 6-week-old male DBA/2 mice by weekly transfer in accordance with the procedure described in cancer chemotherapy Reports, Part 3, 3(2), 7 (1972). Specifically, 1×10^6 leukemia cells were inoculated into the abdominal cavities of 6-week-old male BDF1 mice weighing 21±3 g on day 0. Each treatment group consisted of seven mice. The test compounds were dissolved or suspended in 0.5% carboxymethyl cellulose(CMC)solution (in water) and were administered intraperitoneally on days 1, 5, and 9 relative to the tumor inoculation.
Thirty mice of 6-week-old male BDF1 weighing 21±3 g were used as the control group, which were injected with 0.5% CMC solution only in the same manner as above.
Anti-tumor activities of the compounds were evaluated in terms of the T/C % values calculated from the mean survival time(T) of the compound-treated group over that(C) of the control group. [formula]

ICR mice = experiment: Acute toxicity test; format: in vivo; set-up: Lethality: unit not given here; conditions: for Lethality: 10080 min
Method: 7-week-old ICR mice(male: 34±2 g; female: 31±2 g) were fed with solid food and water under the condition of 23±1° C. temperature and 65±5% humidity before the test.
Each treatment group consisted of 6 mice. The test compounds were administered intraperitoneally.
For 7 days after the administration, the appearance and the fate of the tested animals were recorded. The dead animals were subjected to autopsy and their visible pathological changes were observed. Their viscerals were stored in 10% formalin solution.

[2] = Test for water solubility; format: physicochemical; conditions: 20° C.
Description: 3. Test for water solubility
A standard plot of UV absorbance(220 nm) vs. concentration was made; and employed to determine water-solubility.
The mixture was then passed through a 0.45 micron disposable membrane filter before dilution and UV measurement.

SMILES: CC(C)C1O[C@H](C[NH-])[C@@H](C[NH-])O1.O=C([O-])CC(=O)[O-].[Pt+4] (relative stereo) [Example 38, cis-malonato[(4R,5R)-4,5-bis(aminomethyl)-2-isopropyl-1,3-dioxolane]platinum(II)]
- IC50 (concentration required for 50% inhibition of growth) [1]: 0.43 µg/mL
- T/C (%) (murine leukemia L1210; 12.5 mg/kg i.p.): 123%
- T/C (%) (murine leukemia L1210; 25 mg/kg i.p.): 148%
- T/C (%) (murine leukemia L1210; 50 mg/kg i.p.): 220%

SMILES: NC[C@H]1OCO[C@@H]1CN.O=C1C[O][Pt][O]1 [Example 1, (glycolato-O,O')[(4R,5R)-4,5-bis(aminomethyl)-1,3-dioxolane]platinum(II)]
- IC50 (concentration required for 50% inhibition of growth) [1]: 0.36 µg/mL
- T/C (%) (murine leukemia L1210; 3.1 mg/kg i.p.): 95%
- T/C (%) (murine leukemia L1210; 6.2 mg/kg i.p.): 132%
- T/C (%) (murine leukemia L1210; 12.5 mg/kg i.p.): 137%
- T/C (%) (murine leukemia L1210; 25 mg/kg i.p.): 160%
- T/C (%) (murine leukemia L1210; 50 mg/kg i.p.): toxic

SMILES: CC1O[C@H](CN)[C@@H](CN)O1.O=C1C[O][Pt][O]1 [Example 5, (glycolato-O,O')[(4R,5R)-4,5-bis(aminomethyl)-2-methyl-1,3-dioxolane]platinum(II)]
- IC50 (concentration required for 50% inhibition of growth) [1]: 0.35 µg/mL
- T/C (%) (murine leukemia L1210; 3.1 mg/kg i.p.): 104%
- T/C (%) (murine leukemia L1210; 6.2 mg/kg i.p.): 136%
- T/C (%) (murine leukemia L1210; 12.5 mg/kg i.p.): 154%
- T/C (%) (murine leukemia L1210; 50 mg/kg i.p.): toxic

SMILES: CC1[O][Pt][O]C1=O.NCC1OCOC1CN [Example 13, (L-lactato-O,O')[(4R,5R)-4,5-bis(aminomethyl)-1,3-dioxolane]platinum(II)]
- IC50 (concentration required for 50% inhibition of growth) [1]: 0.55 µg/mL
- T/C (%) (murine leukemia L1210; 12.5 mg/kg i.p.): 178%
- T/C (%) (murine leukemia L1210; 25 mg/kg i.p.): 207%
- T/C (%) (murine leukemia L1210; 50 mg/kg i.p.): 92%

SMILES: CC1(C)OC(CN)C(CN)O1.CC1[O][Pt][O]C1=O [Example 14, (L-lactato-O,O')[(4R,5R)-4,5-bis(aminomethyl)-2,2-dimethyl-1,3-dioxolane]platinum(II)]
- IC50 (concentration required for 50% inhibition of growth) [1]: 0.46 µg/mL
- T/C (%) (murine leukemia L1210; 12.5 mg/kg i.p.): 213%
- T/C (%) (murine leukemia L1210; 25 mg/kg i.p.): toxic
- T/C (%) (murine leukemia L1210; 50 mg/kg i.p.): toxic

SMILES: CC1OC(CN)C(CN)O1.CC1[O][Pt][O]C1=O [Example 17, (L-lactato-O,O')[(4R,5R)-4,5-bis(aminomethyl)-2-methyl-1,3-dioxolane]platinum(II)]
- IC50 (concentration required for 50% inhibition of growth) [1]: 0.44 µg/mL
- T/C (%) (murine leukemia L1210; 12.5 mg/kg i.p.): 201%
- T/C (%) (murine leukemia L1210; 25 mg/kg i.p.): 327%
- T/C (%) (murine leukemia L1210; 50 mg/kg i.p.): 139%

SMILES: CC1[O][Pt][O]C1=O.CCC1OC(CN)C(CN)O1 [Example 18, (L-lactato-O,O')[(4R,5R)-4,5-bis(aminomethyl)-2-ethyl-1,3-dioxolane]platinum(II)]
- Number of dead mice for 7 days (ICR mice; female, 41.3 mg/kg i.p.): 3/6
- Number of dead mice, 1st day (ICR mice; female, 41.3 mg/kg i.p.): 0/6
- Number of dead mice, 5th day (ICR mice; female, 41.3 mg/kg i.p.): 1/6
- Number of dead mice, 6th day (ICR mice; female, 41.3 mg/kg i.p.): 2/5
- Lethality (ICR mice; female, 41.3 mg/kg i.p.): 55.0
- Number of dead mice for 7 days (ICR mice; female, 54.9 mg/kg i.p.): 4/6
- Number of dead mice, 1st day (ICR mice; female, 54.9 mg/kg i.p.): 0/6
- Number of dead mice, 3rd day (ICR mice; female, 54.9 mg/kg i.p.): 1/6
- Number of dead mice, 4th day (ICR mice; female, 54.9 mg/kg i.p.): 2/5
- Number of dead mice, 5th day (ICR mice; female, 54.9 mg/kg i.p.): 1/3
- Lethality (ICR mice; female, 54.9 mg/kg i.p.): 66.7
- Number of dead mice for 7 days (ICR mice; female, 71.4 mg/kg i.p.): 5/6
- Number of dead mice, 1st day (ICR mice; female, 71.4 mg/kg i.p.): 0/6
- Number of dead mice, 4th day (ICR mice; female, 71.4 mg/kg i.p.): 1/6
- Number of dead mice, 5th day (ICR mice; female, 71.4 mg/kg i.p.): 3/5
- Number of dead mice, 6th day (ICR mice; female, 71.4 mg/kg i.p.): 1/2
- Lethality (ICR mice; female, 71.4 mg/kg i.p.): 83.3
- Number of dead mice for 7 days (ICR mice; female, 91.8 mg/kg i.p.): 6/6
- Number of dead mice, 1st day (ICR mice; female, 91.8 mg/kg i.p.): 1/6
- Number of dead mice, 2nd day (ICR mice; female, 91.8 mg/kg i.p.): 1/6
- Number of dead mice, 3rd day (ICR mice; female, 91.8 mg/kg i.p.): 2/5
- Number of dead mice, 4th day (ICR mice; female, 91.8 mg/kg i.p.): 2/3
- Number of dead mice, 5th day (ICR mice; female, 91.8 mg/kg i.p.): 1/1
- Lethality (ICR mice; female, 91.8 mg/kg i.p.): 100.0
- Number of dead mice for 7 days (ICR mice; male, 41.3 mg/kg i.p.): 4/6
- Number of dead mice, 1st day (ICR mice; male, 41.3 mg/kg i.p.): 0/6
- Number of dead mice, 4th day (ICR mice; male, 41.3 mg/kg i.p.): 1/6
- Number of dead mice, 5th day (ICR mice; male, 41.3 mg/kg i.p.): 1/5
- Number of dead mice, 6th day (ICR mice; male, 41.3 mg/kg i.p.): 2/4
- Lethality (ICR mice; male, 41.3 mg/kg i.p.): 66.7
- Number of dead mice for 7 days (ICR mice; male, 54.9 mg/kg i.p.): 4/6
- Number of dead mice, 1st day (ICR mice; male, 54.9 mg/kg i.p.): 0/6
- Number of dead mice, 2nd day (ICR mice; male, 54.9 mg/kg i.p.): 1/6
- Number of dead mice, 3rd day (ICR mice; male, 54.9 mg/kg i.p.): 1/5
- Number of dead mice, 4th day (ICR mice; male, 54.9 mg/kg i.p.): 1/4
- Number of dead mice, 5th day (ICR mice; male, 54.9 mg/kg i.p.): 1/3
- Lethality (ICR mice; male, 54.9 mg/kg i.p.): 66.7
- Number of dead mice for 7 days (ICR mice; male, 71.4 mg/kg i.p.): 5/6
- Number of dead mice, 1st day (ICR mice; male, 71.4 mg/kg i.p.): 0/6
- Number of dead mice, 4th day (ICR mice; male, 71.4 mg/kg i.p.): 2/6
- Number of dead mice, 5th day (ICR mice; male, 71.4 mg/kg i.p.): 2/4
- Number of dead mice, 6th day (ICR mice; male, 71.4 mg/kg i.p.): 1/2
- Lethality (ICR mice; male, 71.4 mg/kg i.p.): 83.3
- Number of dead mice for 7 days (ICR mice; male, 91.8 mg/kg i.p.): 6/6
- Number of dead mice, 1st day (ICR mice; male, 91.8 mg/kg i.p.): 0/6
- Number of dead mice, 2nd day (ICR mice; male, 91.8 mg/kg i.p.): 3/6
- Number of dead mice, 4th day (ICR mice; male, 91.8 mg/kg i.p.): 1/3
- Number of dead mice, 5th day (ICR mice; male, 91.8 mg/kg i.p.): 1/2
- Number of dead mice, 6th day (ICR mice; male, 91.8 mg/kg i.p.): 1/1
- Lethality (ICR mice; male, 91.8 mg/kg i.p.): 100.0
- IC50 (concentration required for 50% inhibition of growth) [1]: 0.32 µg/mL
- T/C (%) (murine leukemia L1210; 12.5 mg/kg i.p.): 206%
- T/C (%) (murine leukemia L1210; 25 mg/kg i.p.): 165%
- T/C (%) (murine leukemia L1210; 50 mg/kg i.p.): toxic

SMILES: O=C1[O][Pt-2]2([NH2+]CC3OCOC3C[NH2+]2)[O]C(=O)C12CCC2 [Example 21, cis-cyclobutane-1,1-dicarboxylato[(4S,5S)-4,5-bis(aminomethyl)-1,3-dioxolane]platinum(II)]
- IC50 (concentration required for 50% inhibition of growth) [1]: 2.08 µg/mL
- Solubility in water [2]: 3100 µg/mL
